Several values for one entry are separate records, joined by “and”; a condition that tells them apart may be missing. Equal values may be shown once.
Legend:
rumen bacteria = experiment: Bacterial viability in sheep after administering defaunation compounds; assay type: in vivo; settings: gas production one week after dosing vs pre-dosing
Description: In order to establish what effect the compounds had on the viability of rumen bacteria, a sample of rumen liquor was collected prior to dosing of the compound. The sample was withdrawn under vacuum using a pre-warmed tube inserted into the rumen through a rumen cannula. The sample was collected in a pre-warmed (39° C.) flask, gassed with carbon dioxide and covered. Two-pre-warmed 30 ml centrifuge tubes were then filled with well mixed rumen liquor and centrifuged at 2000 rpm for 5 minutes. Half the volume of each tube was then poured into another pre-warmed tube without disturbing the sediment. Three lots of 10 ml of this rumen liquor were then pipetted into 15 ml tubes which contained 10 μL of urea solution (40% w/v and 300 μL of glucose solution (50% w/v). The urea and glucose acted as substrate for the bacteria. The tubes were then gassed with carbon dioxide, stoppered and placed in a water bath at 39° C. After 10 minutes a 5 ml glass syringe was secured into the stoppers (through which a hypodermic needle had been inserted) and the gas collected for five hours and recorded.
This bacterial viability measure was then repeated one week after dosing with each of the compounds referred to in Table 1. Defaunation compositions were prepared according to the method of Example 1. The amount of gas produced was then compared with the pre-dosing level. The criterion for classifying post-dosing bacterial viability is shown below:
Poor--reduction in post-dosing gas production relative to pre-dosing levels.
OK--post-dosing gas production the same as pre-dosing levels.
Good--increase in post-dosing gas production relative to pre-dosing levels.

[1] = Effect of defaunation compounds on feed intake of sheep; assay type: in vivo; settings: after dosing vs pre-dosing intake
Description: Sheep were allowed a minimum of three weeks to adapt to their ration of 900 g of oaten chaff and 100 g of Lucerne chaff. The pre-dosing level of intake for each animal was established from the mean of five days intake immediately prior to dosing. Any effects of administering the compound on feed intake was then determined by measuring the level of feed intake after dosing.
The criteria of classifying the effect on food intake are shown below.
Poor--greater than 50% reduction in feed intake during the first week after dosing.
Fair--greater than 50% reduction in feed intake on the day following dosing but less then 50% reduction one week after dosing.
OK--transient drop in feed intake which is less than 50% on the day after dosing.
Good--No reduction in feed intake following dosing.

[2] = Liveweight gain of growing lambs; assay type: in vivo, lambs (sheep); settings: 332 mg/kg
Description: (§1) Three cross-bred lambs were defaunated with compound 37 at dose rate of 332 mg per kg liveweight. The lambs were allowed four weeks to adapt to defaunation before commencing the trial. The lambs were grazed at pasture. Ten control (faunated) cohorts of the defaunated group, which were matched for liveweight, were grazed in the same paddock, but separated from the defaunated lambs by a double-fence (4 meter separation). This was to prevent the faunated lambs contaminating the defaunated lambs. Both groups of lambs were weighed on four occasions at three weekly intervals. Protozoa were also monitored at the same time.

protozoa [3] = experiment: Protozoal population number in growing lambs; assay type: in vivo, lambs (sheep)
Description: as §1

[4] = Growth and carcass measurements in lambs; assay type: in vivo, lambs (sheep); settings: 332 mg/kg
Description: as §1, with “Then” for “Ten”, “lambs.” for “lambs. Both groups of lambs were weighed on four occasions at three weekly intervals. Protozoa were also monitored at the same time.”
At 16 weeks post-defaunation both groups of the lambs were sacrificed and measurements taken.
Also shown is the cross-sectional area of the longissimus dorsi (loin eye muscle) measured between the 12th and 13th rib.

rumen protozoa = experiment: Defaunation using single or 2 or 3 repeated doses in sheep; assay type: in vivo; settings: individual sheep
Description: (§2) Sheep were fed a diet of 900 g oaten chaff daily, except that food and water were withheld for 19 hours before and 24 hours after dosing. Each dose was prepared by mixing compound 37 with 20 ml of ethanol followed by 200 ml of centrifuged rumen liquor, to give a dose of 167 mg/kg body weight, administered by rumen tube. Rumen protozoa were counted weekly following the final treatment.
Table 9: The effect of administering compound 37 (from table 1) on mean protozoal numbers in rumen in sheep.

protozoa [5] = experiment: Reliability of defaunation using 2 repeated doses in sheep; assay type: in vivo; settings: Group 1, 2 doses, 4 weeks
Description: as §2
Sixty (60) Sheep, in three successive trials of 20 each, were treated with 2 doses of compound 37, one week apart, according to the method of Example 14. Protozoa were counted at 4 or 5 weeks after the second treatment.

[6] = The Pesticide Manual, 9th Ed. 1991; cited from earlier work

## Cc1ccc(Nc2nc(Cl)nc(Cl)n2)cc1Cl [Compound 27, 2,4 dichloro-6-(3 chloro-4-methylanilino)-s-triazine]
Rumen bacteria
  Bacterial Viability: Okay
[1]
  Feed Intake: Okay (transient drop, less than 50% at day 2)

## Clc1nc(Cl)nc(Nc2ccccc2Cl)n1 [Compound 37, 2,4-dichloro-6-(2-chloroanilino)-1,3,5-triazine]
Rumen bacteria
  Bacterial Viability: Okay
[1]
  Feed Intake: Okay (transient drop, less than 50% at day 2)
[2]; over controls, P<0.01
  Rate of liveweight gain (in words): highly significant improvement in the rate of liveweight gain
[2]; relative to control
  ADG Increase: 65%
[2]; weeks 0-12
  ADG: 165 g/day
Protozoa [3]; week 0, 332 mg/kg
  Protozoal numbers: 0 per mL × 10^3
Protozoa [3]; week 3, 332 mg/kg
  Protozoal numbers: 0 per mL × 10^3
Protozoa [3]; week 6, 332 mg/kg
  Protozoal numbers: 0 per mL × 10^3
Protozoa [3]; week 9, 332 mg/kg
  Protozoal numbers: 0 per mL × 10^3
Protozoa [3]; week 12, 332 mg/kg
  Protozoal numbers: 0 per mL × 10^3
[4]; vs control, p < 0.01
  ADG, response to defaun.: 72%
  Carcass dressing out percentage, response to defaun.: 16%
  Loin eye muscle area, response to defaun.: 26%
[4]; defaunation
  ADG (average daily gain): 165 g/day
[4]; defaunation, 16 weeks, between 12th and 13th rib
  Loin eye muscle area: 12.5 CM^2
[4]; defaunation, 16 weeks, cold carcass weight as percentage of liveweight
  Carcass dressing out percentage: 44.5%
Rumen protozoa; 2 doses 1 wk apart at 167 mg/kg/dose, week 0, 167 mg/kg
  Protozoal Count: 64,000 number/mL of rumen fluid and 68,500 number/mL of rumen fluid and 94,000 number/mL of rumen fluid
Rumen protozoa; 2 doses 1 wk apart at 167 mg/kg/dose, week 1
  Protozoal Count: 0 number/mL of rumen fluid
Rumen protozoa; 2 doses 1 wk apart at 167 mg/kg/dose, week 2
  Protozoal Count: 0 number/mL of rumen fluid
Rumen protozoa; 2 doses 1 wk apart at 167 mg/kg/dose, week 3
  Protozoal Count: 0 number/mL of rumen fluid
Rumen protozoa; 2 doses 1 wk apart at 167 mg/kg/dose, week 4
  Protozoal Count: 0 number/mL of rumen fluid
Rumen protozoa; 3 doses 1 wk apart at 167 mg/kg per dose, week 0, 167 mg/kg
  Protozoal Count: 259,000 number/mL of rumen fluid and 242,500 number/mL of rumen fluid and 122,500 number/mL of rumen fluid
Rumen protozoa; 3 doses 1 wk apart at 167 mg/kg per dose, week 1
  Protozoal Count: 0 number/mL of rumen fluid
Rumen protozoa; 3 doses 1 wk apart at 167 mg/kg per dose, week 2
  Protozoal Count: 0 number/mL of rumen fluid
Rumen protozoa; 3 doses 1 wk apart at 167 mg/kg per dose, week 3
  Protozoal Count: 0 number/mL of rumen fluid
Rumen protozoa; 3 doses 1 wk apart at 167 mg/kg per dose, week 4
  Protozoal Count: 0 number/mL of rumen fluid
Rumen protozoa; single dose 167 mg/kg, week 0, 167 mg/kg
  Protozoal Count: 151,500 number/mL of rumen fluid and 300,000 number/mL of rumen fluid and 149,500 number/mL of rumen fluid
Rumen protozoa; single dose 167 mg/kg, week 1
  Protozoal Count: 0 number/mL of rumen fluid
Rumen protozoa; single dose 167 mg/kg, week 2, 167 mg/kg
  Protozoal Count: 370,000 number/mL of rumen fluid and 0 number/mL of rumen fluid and 4,500 number/mL of rumen fluid
Rumen protozoa; single dose 167 mg/kg, week 3
  Protozoal Count: 88,800 number/mL of rumen fluid
Protozoa [5]
  Residual protozoal population (in words): one sheep had a residual protozoal population
[6]
  LD50: > 4000 mg/kg

— patent US5561131A, “Defaunation method” (Mallinckrodt Veterinary, Inc., priority 1991, dated 1996)
